Reference: patent US6703407B1, “Benzofuran compounds, compositions, and methods” (Eli Lilly and Company, priority 1994, dated 2004)

Key:
Type in all cases: in vivo, Sprague Dawley rats
ovariectomized rats [1] = assay: Uterine weight in ovariectomized rat post-menopausal model (4-day dosing); settings: for Uterine Weight (% increase vs. OVX): OVX rats, oral daily for 4 days
Method: (§1) In the examples illustrating the methods, a post-menopausal model was used in which effects of different treatments upon circulating lipids were determined.
(§2) Seventy-five day old female Sprague Dawley rats (weight range of 200 to 225 g) were obtained from Charles River Laboratories (Portage, Mich.). The animals were either bilaterally ovariectomized (OVX) or exposed to a Sham surgical procedure at Charles River Laboratories, and then shipped after one week. Upon arrival, they were housed in metal hanging cages in groups of 3 or 4 per cage and had ad libitum access to food (calcium content approximately 0.5%) and water for one week. Room temperature was maintained at 22.20±1.7° C. with a minimum relative humidity of 40%. The photoperiod in the room was 12 hours light and 12 hours dark.
(§3) Dosing Regimen Tissue Collection. After a one week acclimation period (therefore, two weeks post-OVX) daily dosing with test compound was initiated. 17α-ethynyl estradiol or the test compound were given orally, unless otherwise stated, as a suspension in 1% carboxymethylcellulose or dissolved in 20% cyclodextrin. Animals were dosed daily for 4 days. Following the dosing regimen, animals were weighed and anesthetized with a ketamine: Xylazine (2:1, V:V) mixture and a blood sample was collected by cardiac puncture. The animals were then sacrificed by asphyxiation with CO2, the uterus was removed through a midline incision, and a wet uterine weight was determined.

[2] = system: Uterine Eosinophil Peroxidase (EPO); assay: Uterine Eosinophil Peroxidase (EPO) Assay; settings: for Uterine EPO (V. max): OVX rats, oral daily for 4 days
From the text: as §2, §3
Uterine Eosinophil Peroxidase (EPO) Assay. Uteri were kept at 4° C. until time of enzymatic analysis. The uteri were then homogenized in 50 volumes of 50 mM Tris buffer (pH−8.0) containing 0.005% Triton X-100. Upon addition of 0.01% hydrogen peroxide and 10 mM o-phenylenediamine (final concentrations) in Tris buffer, increase in absorbance was monitored for one minute at 450 nm. The presence of eosonophils in the uterus is an indication of estrogenic activity of a compound. The maximal velocity of a 15 second interval was determined over the initial, linear portion of the reaction curve.

ovariectomized rats [3] = assay: Serum cholesterol in ovariectomized rat post-menopausal model (4-day dosing); settings: oral daily for 4 days
Method: as §1, §2, §3
Cholesterol Analysis. Blood samples were allowed to clot at room temperature for 2 hours, and serum was obtained following centrifugation for 10 minutes at 3000 rpm. Serum cholesterol was determined using a Boehringer Mannheim Diagnostics high performance cholesterol assay. Briefly the cholesterol was oxidized to cholest-4-en-3-one and hydrogen peroxide. The hydrogen peroxide was then reacted with phenol and 4-aminophenazone in the presence of peroxidase to produce a p-quinone imine dye, which was read spectrophotemetrically at 500 nm. Cholesterol concentration was then calculated against a standard curve. The entire assay was automated using a Biomek Automated Workstation.

| Uterine Weight (% increase vs. OVX) (ovariectomized rats [1]; dose 0.1 mg/kg) | Uterine EPO (V. max) ([2]; dose 0.1 mg/kg) | Uterine Weight (% increase vs. OVX) (ovariectomized rats [1]; dose 1.0 mg/kg) | Uterine Weight (% increase vs. OVX) (ovariectomized rats [1]; dose 10.0 mg/kg) | Uterine EPO (V. max) ([2]; dose 1.0 mg/kg) | Uterine EPO (V. max) ([2]; dose 10.0 mg/kg) | SMILES | uterine weight vs. ovariectomized test animals (in words) (ovariectomized rats [1]; orally administered at 0.1 mg/Kg/day) | eosinophil infiltration into the uterus (number of eosinophils in the stromal layer, in words) ([2]; ovariectomized rats) | Serum Cholesterol (% decrease vs. OVX) (ovariectomized rats [3]; dose 0.1 mg/kg) | Serum Cholesterol (% decrease vs. OVX) (ovariectomized rats [3]; dose 1.0 mg/kg) | Serum Cholesterol (% decrease vs. OVX) (ovariectomized rats [3]; dose 10.0 mg/kg) |
| --- | --- | --- | --- | --- | --- | --- | --- | --- | --- | --- | --- |
| 172.8 | 201.9 |  |  |  |  | C#C[C@]1(O)CC[C@H]2[C@@H]3CCc4cc(O)ccc4[C@H]3CC[C@@]21C [EE2, 17α-ethynyl estradiol, reference compound] | substantially greater than the uterine weight of ovariectomized test animals | substantial, expected increase in eosinophil infiltration | 92.6 |  |  |
| 8.6 | 4.7 | 26.3 | 30.1 | 5.8 | 11.3 | Cl.Oc1ccc(-c2oc3cc(O)ccc3c2Cc2ccc(OCCN3CCCCC3)cc2)cc1 [Ex-3, [2-(4-Hydroxyphenyl)-6-hydroxybenzofuran-3-yl][4-[2-(1-piperidinyl)ethoxy]phenyl]methane Hydrochloride] |  |  | 38.9 | 53.0 | 73.3 |
